Columns and labels:
ob/ob mice = experiment: Plasma glucose, compound in chow, obese mice; type: in vivo, mouse (C57 B1/6J ob/ob)
Procedure: The compounds of this invention were tested for hypoglycemic and anti-obesity activity according to the following procedure.
Obese mice (C57 B1/6J (ob/ob)), and/or diabetic mice (C57 B1/KsJ (db/db)) were obtained from Jackson Laboratories, Bar Harbor, Maine. Obese rats (fa/fa) were obtained from Charles River Laboratories, Wilmington, Mass. Obese mice were 8 weeks of age and diabetic mice were 9 weeks of age at the start of the test. Obese rats were 12-14 weeks of age at the start.
The test compounds were dissolved in methanol, mixed with powdered Purina rodent chow on a weight of compound to weight of chow basis and thoroughly dried.
Groups of 6 control mice or rats received vehicle (methanol) treated chow.
[…] Thus, a 40 g mouse, fed the test compound at a concentration of 0.02 percent of the diet, would receive a dose of 20 mg/kg/day if it ate 4 g of chow per day.
The mice or rats were weighed before the first treatment and once at the end of each indicated treatment period.
Blood samples were collected before the first treatment and once at the end of each indicated treatment period by retro-orbital puncture using heparinized capillary tubes.
Plasma was separated by centrifugation in a Beckman microfuge for 5 minutes. Plasma glucose concentrations were determined with the Beckman glucose analyzer which uses a glucose oxidase method.

β3-receptors = molecular target: T1, β3-receptors (Rattus norvegicus, UniProt P26255); experiment: Stimulation of adipocyte lipolysis (β3-effect); type: cell-based
T1 construct: Rat epididymal fat pads were excised and placed in 0.9% saline; from tissue; host or cells: collagenase-isolated adipocytes from rat epididymal fat pads
T1 sequence (P26255 whole entry): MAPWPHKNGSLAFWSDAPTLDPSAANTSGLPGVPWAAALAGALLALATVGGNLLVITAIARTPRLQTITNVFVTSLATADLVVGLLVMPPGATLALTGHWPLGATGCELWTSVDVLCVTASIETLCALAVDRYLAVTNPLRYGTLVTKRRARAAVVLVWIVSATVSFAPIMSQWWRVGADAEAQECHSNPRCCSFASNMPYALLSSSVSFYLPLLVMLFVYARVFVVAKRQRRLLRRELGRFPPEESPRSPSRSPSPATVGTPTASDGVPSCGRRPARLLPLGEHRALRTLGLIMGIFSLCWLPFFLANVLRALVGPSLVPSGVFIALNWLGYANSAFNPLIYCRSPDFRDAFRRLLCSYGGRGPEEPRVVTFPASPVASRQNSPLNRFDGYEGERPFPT
Procedure: β-Adrenergic receptors can be divided into β1, β2 and β3 -subtypes. Activation of β1 -receptors invokes increases in heart rate while activation of β2 -receptors stimulates glycogen breakdown in muscle and thereby prevents glycogen synthesis. Activation of β3 -receptors stimulates lipolysis (the breakdown of adipose tissue triglycerides to glycerol and free fatty acids), and thereby promotes the loss of fat mass.
The β3 -effect of the compounds was determined by their ability to stimulate adipocyte lipolysis. Rat epididymal fat pads were excised and placed in 0.9% saline. Four grams of tissue were transferred to a flask with 20 ml of aerated Krebs-Henseleit bicarbonate (KHB) buffer containing 3% fatty acid-free bovine serum albumin to which 75 mg of crude bacterial collagenase (Worthington) had been added. The tissue was incubated for about 45 minutes at 37° C. with gentle shaking. The cells were then washed three times with two volumes of KHB buffer, filtered through two layers of gauze, and brought to a final volume of 80 ml with KHB buffer. One ml aliquots of the cell suspension were added to plastic test tubes containing the appropriate additions of vehicle or compound. The cells were gassed for 1 minute with 95% O2 -5% CO2, capped, and incubated at 37° C. with continuous shaking for a total of 30 minutes. The reaction was stopped by adding 0.1 ml of 30% perchloric acid and 0.1 ml of chloroform. After centrifugation, 0.5 ml of supernatant was transferred to another test tube and neutralized with 0.04 ml of 3M K2 CO3 -0.5M triethanolamine. The amount-of glycerol generated from the hydrolysis of endogenous triglycerides was determined in a coupled-enzyme spectrophotometric assay. […] The test tubes were incubated for 40 minutes at 37° C. with constant shaking. […] This value was corrected for the amount of NADH generated in the absence of glycerol by incubating another aliquot of the neutralized extract with the same assay mixture but without glycerokinase.

[1] = dose 0.002 % wt of chow, week 0 (before treatment)
[2] = dose 0.002 % wt of chow, week 1
[3] = dose 0.005 % wt of chow, week 0 (before treatment)
[4] = dose 0.005 % wt of chow, week 1
[5] = dose 0.02 % wt of chow, week 0 (before treatment)

| SMILES | Plasma Glucose Levels (ob/ob mice; [1]) [mg/100 ml] | Plasma Glucose Levels (ob/ob mice; [2]) [mg/100 ml] | Plasma Glucose Levels (ob/ob mice; [3]) [mg/100 ml] | Plasma Glucose Levels (ob/ob mice; [4]) [mg/100 ml] | Plasma Glucose Levels (ob/ob mice; [5]) [mg/100 ml] | Plasma Glucose Levels (ob/ob mice; dose 0.02 % wt of chow, week 1) [mg/100 ml] | also measured |
| --- | --- | --- | --- | --- | --- | --- | --- |
| C[C@H](Cc1ccc2c(c1)OCO2)NC[C@H](O)c1cccc(Cl)c1 (racemic) [(R*,R*)-(+/-)-alpha-(((2-(1,3-benzodioxol-5-yl)-1-methylethyl)amino)methyl)-3-chlorobenzenemethanol mixture with (R*,S*)-(+/-)alpha-(((2-(1,3-benzodioxol-5-yl)-1-methylethyl)amino)methyl)-3-chlorobenzenemethanol, reference compound] | 226 | 234 | 227 | 175 | 227 | 149 |  |
| COC(=O)C1(C(=O)OC)Oc2ccc(C[C@@H](C)NC[C@H](O)c3cccc(Cl)c3)cc2O1 (stereo in doubt) [CL5, (R,R)(+/-)5-(2-((2-(3-chlorophenyl)-2-hydroxyethyl)-amino)propyl)-1,3-benzodioxole-2,2-dicarboxylic acid, dimethyl ester hydrobomide] |  |  |  |  |  |  | relative β3 potency of RR over SS form (β3-receptors; RR vs SS enantiomer, lipolysis): 36 fold |
| COC(=O)C1(C(=O)OC)Oc2ccc(C[C@@H](C)NC[C@@H](O)c3cccc(Cl)c3)cc2O1 (relative stereo) [(R*,S*)-(+/-)-5(2-((2-(3-chlorophenyl))-2-hydroxyethyl)amino)propyl)-1,3-benzodioxole-2,2-dicarboxylic acid, dimethyl ester] |  |  | 218 |  | 219 |  | Plasma Glucose Levels (ob/ob mice; dose 0.005 % wt of chow, week 5): 162 mg/100 ml; Plasma Glucose Levels (ob/ob mice; dose 0.005 % wt of chow, week 10): 174 mg/100 ml; Plasma Glucose Levels (ob/ob mice; dose 0.02 % wt of chow, week 5): 135 mg/100 ml; Plasma Glucose Levels (ob/ob mice; dose 0.02 % wt of chow, week 10): 153 mg/100 ml |
| C[C@@H](Cc1ccc2c(c1)OCO2)NC[C@H](O)c1cccc(Cl)c1 (relative stereo) [(R*,S*)-(+/-)-alpha-(((2-(1,3-benzodioxol-5-yl)-1-methylethyl)amino)methyl)-3-chlorobenzenemethanol, reference compound] | 228 | 204 | 226 | 176 | 229 | 128 |  |
| COC(=O)C1(C(=O)OC)Oc2ccc(C[C@H](C)NC[C@@H](O)c3cccc(Cl)c3)cc2O1 (stereo in doubt) [CL6, (S,S)(+/-)5-(2-((2-(3-chlorophenyl)-2-hydroxyethyl)-amino)propyl)-1,3-benzodioxole-2,2-dicarboxylic acid, dimethyl ester hydrobomide] |  |  |  |  |  |  | EC50 (β3-receptors; read-out: Lipolysis (β3) (EC50)): 290 nM |

— patent US5373020A, “Substituted 5-(2-((2-aryl-2-hydroxyethyl)amino)propyl)-1,3-benzodioxoles” (American Cyanamid Company, priority 1993, dated 1994)
